From patent US20130029981A1, “COMPOUNDS, COMPOSITIONS, AND METHODS FOR CONTROLLING BIOFILMS” (Katholieke Universiteit Leuven, priority 2009, published 2013)
Where two headings read alike, the source gives them in different places.

How the values were obtained:
S. Typhimurium ATCC14028 = test: Static peg assay for prevention of biofilm formation (Calgary device, crystal violet); format: cell-based, Salmonella Typhimurium
Summary of the method: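 Calgary 96-peg device, ca. 10^6 cells of ATCC14028 per well in TSB 1/20 for 24 h at 25° C (or 48 h at 16° C, medium and compound renewed at 24 h), or in CFA broth for 24 h at 37° C, static, with two-fold compound dilutions. Crystal violet stain, acetic acid extraction, OD570. IC50 from 2–3 independent experiments.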

[1] = tested on: Pseudomonas aeruginosa PA14; test: as above; format: cell-based
Summary of the method: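 P. aeruginosa PA14 overnight TSB culture diluted 1:100 into broth with two-fold compound dilutions, biofilms grown 24 h static on polystyrene pegs of a Calgary device at 25 °C (TSB 1/20), 30 °C or 37 °C (CFA and/or LBNS). Biofilm quantified by crystal violet, extracted with 30% acetic acid, A570.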

[2] = tested on: Salmonella Typhimurium ATCC 14028; test: Antibacterial activity: growth inhibition, OD600 after 24 h (GIC50); format: cell-based
Method: Evaluation of antibacterial-inhibitory activity of some substituted 2-amino-1H-imidazoles of the invention was carried out by diluting an overnight culture of Salmonella Typhimurium ATCC 14028 into a liquid medium. 200 μl of the diluted overnight culture was added to each well of a microtiter plate together with different concentrations of the test compound (1/2 dilution series of the compound). After an incubation of 24 hours the optical density at 600 nm of each well was determined with a microtiter plate reader.
Starting from a 40 mM stock solution of each compound in DMSO, two-fold serial dilutions in 100 μl liquid broth per well were prepared in dublicate in sterile transparant microtiter plates. The broth used was TSB 1/20 for measurements at 25° C. and CFA (in case of Salmonella Typhimurium) and LBNS (in case of Pseudomonas aeruginosa) for measurements at 37° C. Subsequently an overnight culture of the bacteria (S. Typhimurium ATCC14028 or P. aeruginosa PA14) was diluted 1/200 into the corresponding liquid broth and 100 μl was added to each well of the microtiterplate resulting in a total amout of 200 μl medium per well. After an incubation of 24 hours the optical density at 600 nm of each well was determined with a microtiter plate reader (VERSAmax, Molecular Devices).
Evaluation of antibacterial-inhibitory activity of some substituted imidazo[1,2-a]pyrimidinium bromide salts of the invention was carried out by diluting an overnight culture of Salmonella Typhimurium ATCC14028 or Pseudomonas aeruginosa PA141/200 into liquid medium. 200 μl of the diluted overnight culture was added to each well of a microtiterplate together with different concentrations of the test compound (1/2 dilution series of the compound). After an incubation of 24 hours the optical density at 600 nm of each well was determined with a microtiter plate reader.

[3] = S. Typhimurium ATCC 14028, 25° C., read-out: IC50 for biofilm inhibition (25° C.)
[4] = P. aeruginosa PA14, 25° C., read-out: IC50 for biofilm inhibition (25° C.)
[5] = OD600 after 24 hours of growth, read-out: GIC(50)
[6] = 25° C., Table 11, read-out: IC50 (biofilm formation)
[7] = 25° C., Table 14, read-out: IC50 biofilm inhibition
[8] = S. Typhimurium ATCC 14028, 25° C., read-out: S. Typhimurium IC50 (biofilm formation)
[9] = P. aeruginosa PA14, 25° C., read-out: P. aeruginosa IC50 (biofilm formation)
[10] = Table 21, S. Typhimurium ATCC14028, 25° C., read-out: S. Typhimurium IC50 (biofilm formation)
[11] = Table 21, P. aeruginosa PA14, 25° C., read-out: P. aeruginosa IC50 (biofilm formation)
[12] = 25° C., Table 22, read-out: S. Typhimurium IC50 (biofilm formation)
[13] = 25° C., Table 22, read-out: P. aeruginosa IC50 (biofilm formation)
[14] = Salmonella enterica, 25° C., Table 11, read-out: IC50 (biofilm formation)
[15] = Salmonella enterica, 25° C., Table 14, read-out: IC50 biofilm inhibition

Clc1ccc(-c2c[nH]c(NC3CCCC3)n2)cc1Cl
IC50 (S. Typhimurium ATCC14028; [3]): 6 µM
IC50 [1, 4]: 1 µM
IC50 [2, 5]: 50 µM

OC1(c2ccc(Cl)cc2)C[n+]2cccnc2N1C1CC1 (stereo not shown) [Compound 61]
IC50 (S. Typhimurium ATCC14028; [6]): 120 µM
IC50 (S. Typhimurium ATCC14028; [7]): 120 µM
IC50 (S. Typhimurium ATCC14028; 25° C., Table 18, read-out: S. Typhimurium IC50 (biofilm formation)): 82.7 µM
IC50 ([1]; 25° C., Table 18, read-out: P. aeruginosa IC50 (biofilm formation)): 179 µM
IC50 ([2]; 25° C.): 100 to 200 µM

OC1(c2ccc3c(c2)OCO3)C[n+]2cccnc2N1Cc1ccc2c(c1)OCO2 (stereo not shown) [Compound 80]
IC50 (S. Typhimurium ATCC14028; [6]): 102 µM
IC50 (S. Typhimurium ATCC14028; [7]): 102 µM
IC50 (S. Typhimurium ATCC14028; 25° C., Table 19, read-out: IC50 (biofilm formation)): 53.7 µM
IC50 ([2]; 25° C.): 100 to 200 µM

CC(C)CNc1ncc(-c2ccc(Br)cc2)[nH]1 [Compound 103]
IC50 (S. Typhimurium ATCC14028; [8]): 2.9 µM
IC50 [1, 9]: 1.2 µM

CCCCCNc1ncc(-c2ccc(Br)cc2)[nH]1 [Compound 104]
IC50 (S. Typhimurium ATCC14028; [8]): 3.1 µM
IC50 [1, 9]: 10.2 µM

CCCCCCCCNc1ncc(-c2ccc(Br)cc2)[nH]1 [Compound 105]
IC50 (S. Typhimurium ATCC14028; [8]): 1.9 µM
IC50 [1, 9]: > 800 µM

COc1ccc(-c2cnc(N)[nH]2)cc1 [Compound 106]
IC50 (S. Typhimurium ATCC14028; [8]): 120 µM
IC50 [1, 9]: 186 µM

CCCCNc1ncc(-c2ccc(OC)cc2)[nH]1 [Compound 107]
IC50 (S. Typhimurium ATCC14028; [8]): 52.6 µM
IC50 [1, 9]: 46.3 µM

CCCCCCCCNc1ncc(-c2ccc(OC)cc2)[nH]1 [Compound 108]
IC50 (S. Typhimurium ATCC14028; [8]): ~400 µM
IC50 [1, 9]: > 800 µM

CCCNc1ncc(-c2ccc(Cl)c(Cl)c2)[nH]1 [Compound 109]
IC50 (S. Typhimurium ATCC14028; [8]): 10.9 µM
IC50 [1, 9]: 27.7 µM

CCCCCCCCNc1ncc(-c2ccc(Cl)c(Cl)c2)[nH]1 [Compound 111]
IC50 (S. Typhimurium ATCC14028; [8]): 118 µM
IC50 [1, 9]: > 800 µM

CS(=O)(=O)c1ccc(-c2cnc(N)[nH]2)cc1 [Compound 115]
IC50 (S. Typhimurium ATCC14028; [8]): > 800 µM
IC50 [1, 9]: > 800 µM

CCCCCCCCNc1ncc(-c2ccc(S(C)(=O)=O)cc2)[nH]1 [Compound 116]
IC50 (S. Typhimurium ATCC14028; [8]): 41.8 µM
IC50 [1, 9]: ~3.1 µM

Clc1ccc(-c2cnc(NC3CCCC3)[nH]2)cc1 [Compound 118]
IC50 (S. Typhimurium ATCC14028; [10]): 4.4 µM
IC50 [1, 11]: 13.5 µM

O=[N+]([O-])c1ccc(-c2cnc(NC3CCCC3)[nH]2)cc1 [Compound 119]
IC50 (S. Typhimurium ATCC14028; [10]): 11.8 µM
IC50 [1, 11]: 20.2 µM

Brc1ccc(-c2cnc(NC3CCCC3)[nH]2)cc1 [Compound 120]
IC50 (S. Typhimurium ATCC14028; [10]): 12.1 µM
IC50 [1, 11]: 7.2 µM

Clc1ccc(-c2cnc(NC3CCCC3)[nH]2)cc1Cl [Compound 121]
IC50 (S. Typhimurium ATCC14028; [10]): 5.7 µM
IC50 [1, 11]: 7.9 µM

Clc1ccc(-c2cnc(NC3CCCCC3)[nH]2)cc1 [Compound 122]
IC50 (S. Typhimurium ATCC14028; [10]): > 800 µM
IC50 [1, 11]: ~25 µM

O=[N+]([O-])c1ccc(-c2cnc(NC3CCCCC3)[nH]2)cc1 [Compound 123]
IC50 (S. Typhimurium ATCC14028; [10]): 36.7 µM
IC50 [1, 11]: ~25 µM

O=[N+]([O-])c1cccc(-c2cnc(NC3CCCCC3)[nH]2)c1 [Compound 124]
IC50 (S. Typhimurium ATCC14028; [10]): 630 µM
IC50 [1, 11]: 4.4 µM

COc1ccc(-c2cnc(NC3CCCCC3)[nH]2)cc1 [Compound 125]
IC50 (S. Typhimurium ATCC14028; [10]): ~378 µM
IC50 [1, 11]: 54.8 µM

CSc1ccc(-c2cnc(NC3CCCCC3)[nH]2)cc1 [Compound 126]
IC50 (S. Typhimurium ATCC14028; [10]): 191 µM
IC50 [1, 11]: 15.8 µM

Clc1ccc(-c2cnc(NCc3ccccc3)[nH]2)cc1 [Compound 127]
IC50 (S. Typhimurium ATCC14028; [12]): 30.7 µM
IC50 (S. Typhimurium ATCC14028; [3]): 31 µM
IC50 [1, 13]: 26.3 µM
IC50 [2, 5]: 100 µM

COc1ccc(CNc2ncc(-c3ccc([N+](=O)[O-])cc3)[nH]2)cc1 [Compound 128]
IC50 (S. Typhimurium ATCC14028; [12]): > 800 µM
IC50 [1, 13]: > 800 µM

COc1cccc(CCNc2ncc(-c3ccc([N+](=O)[O-])cc3)[nH]2)c1 [Compound 129]
IC50 (S. Typhimurium ATCC14028; [12]): 19.1 µM
IC50 (S. Typhimurium ATCC14028; [3]): 15 µM
IC50 [1, 13]: 3.7 µM

COc1cccc(CCNc2ncc(-c3ccc(Cl)c(Cl)c3)[nH]2)c1 [Compound 130]
IC50 (S. Typhimurium ATCC14028; [12]): > 800 µM
IC50 [1, 13]: > 800 µM

Fc1ccc(-c2cnc(NCc3ccc4c(c3)OCO4)[nH]2)cc1 [Compound 132]
IC50 (S. Typhimurium ATCC14028; [12]): 66.6 µM
IC50 (S. Typhimurium ATCC14028; [3]): 68 µM
IC50 [1, 13]: 456 µM

c1ccc2c(-c3cnc(NCc4ccc5c(c4)OCO5)[nH]3)cccc2c1 [Compound 133]
IC50 (S. Typhimurium ATCC14028; Salmonella enterica, 25° C., Table 22, read-out: S. Typhimurium IC50 (biofilm formation)): 261 µM
IC50 ([1]; Pseudomonas aeruginosa, PA14, 25° C., Table 22, read-out: P. aeruginosa IC50 (biofilm formation)): 10.5 µM

COc1ccc(CCN2c3nccc[n+]3CC2(O)c2ccc([N+](=O)[O-])cc2)cc1OC (stereo not shown) [R1=2-(3,4-diMeO—Ph)Et, R3=4-NO2-Ph, R4=H, 1-(2-(3,4-dimethoxyphenyl)ethyl)-2-hydroxy-2-(4-nitrophenyl)-2,3-dihydro-1H-imidazo-[1,2-a]pyrimidin-4-ium bromide]
IC50 (S. Typhimurium ATCC14028; [14]): 127 µM
IC50 (S. Typhimurium ATCC14028; [15]): 127 µM
IC50 ([2]; Salmonella enterica, 25° C.): 100 to 200 µM

COc1ccc(C2(O)C[n+]3cccnc3N2C2CCCCC2)cc1 (stereo not shown) [R1=Cyclohexyl, R3=4-MeO—Ph, R4=H, 1-cyclohexyl-2-hydroxy-2-(4-methoxyphenyl)-2,3-dihydro-1H-imidazo[1,2-a]pyrimidin-4-ium bromide]
IC50 (S. Typhimurium ATCC14028; [14]): 112 µM
IC50 (S. Typhimurium ATCC14028; [15]): 112 µM
IC50 ([2]; Salmonella enterica, 25° C.): 50 to 100 µM

CSc1ccc(C2(O)C[n+]3cccnc3N2C2CCCCC2)cc1 (stereo not shown) [R1=Cyclohexyl, R3=4-MeS—Ph, R4=H, 1-cyclohexyl-2-hydroxy-2-(4-methylthiophenyl)-2,3-dihydro-1H-imidazo[1,2-a]pyrimidin-4-ium bromide]
IC50 (S. Typhimurium ATCC14028; [14]): 118 µM
IC50 (S. Typhimurium ATCC14028; [15]): 118 µM
IC50 ([2]; Salmonella enterica, 25° C.): 100 to 200 µM

CCCCNc1nc(-c2ccc(F)cc2)c[nH]1 [R1=H, R2=Butyl, R3=H, R4=p-F—Ph]
IC50 (S. Typhimurium ATCC14028; [3]): 16 µM
IC50 [1, 4]: 6 µM

Brc1ccc(-c2c[nH]c(NC3CCCC3)n2)cc1 [R1=H, R2=cyclopentyl, R3=H, R4=p-Br—Ph]
IC50 [2, 5]: 50 to 100 µM

Clc1ccc(-c2c[nH]c(NC3CCCC3)n2)cc1 [R1=H, R2=cyclopentyl, R3=H, R4=p-Cl—Ph]
IC50 (S. Typhimurium ATCC14028; [3]): 4 µM
IC50 [2, 5]: 45 µM

CC1[n+]2cccnc2N(c2ccccc2)C1(O)c1ccc(Br)cc1 (stereo not shown) [R1=Ph, R3=4-Br—Ph, R4=Me, 1-phenyl-2-hydroxy-2-(4-bromophenyl)-3-methyl-2,3-dihydro-1H-imidazo[1,2-a]pyrimidin-4-ium bromide]
IC50 (S. Typhimurium ATCC14028; [14]): 57.5 µM
IC50 (S. Typhimurium ATCC14028; [15]): 57.5 µM
IC50 ([2]; Salmonella enterica, 25° C.): 50 to 100 µM

CCCCN1c2nccc[n+]2CC1(O)C(c1ccccc1)c1ccccc1 (stereo not shown) [R1=n-butyl, R3=dimethylphenyl, R4=H, 1-butyl-2-hydroxy-2-(diphenyl-methyl)-2,3-dihydro-1H-imidazo[1,2-a]pyrimidin-4-ium bromide]
IC50 (S. Typhimurium ATCC14028; [15]): 72.1 µM
IC50 ([2]; Salmonella enterica, 25° C.): 50 to 100 µM
